From US20260022142A1, “MACROCYCLIC IMMUNOMODULATORS” (Bristol-Myers Squibb Company, priority 2022, published 2026)
Numbered stars: 1 amine (or outer) side, 2 acyl side, 3 side chain; on linkers, the order of the positions; unused ones are H or OH. Bridge positions count the residues as written; N and C are the ends. Square brackets hold non-standard residues; d marks the D form. Peptide text beside a SMILES is read from it. * marks the point of attachment. ξ: configuration not given here. Phe(3-CF3) = N[C@@H](Cc1cccc(C(F)(F)F)c1)C(=O)O; Ala(morpholin-4-yl) = N[C@@H](CN1CCOCC1)C(=O)O; Phe(4-COOH) = N[C@@H](Cc1ccc(C(=O)O)cc1)C(=O)O; Bip = N[C@@H](Cc1ccc(-c2ccccc2)cc1)C(=O)O; Phe(3-Me) = Cc1cccc(C[C@H](N)C(=O)O)c1; Phe(4-F) = N[C@@H](Cc1ccc(F)cc1)C(=O)O; βAsp = O=C(O)[C@H](CC(=O)[*:2])N[*:1]; NH(CH2)12COOH = O=C(O)CCCCCCCCCCCCN*; Val(3-OH) = CC(C)(O)[C@H](N)C(=O)O; Cha = N[C@@H](CC1CCCCC1)C(=O)O; Cit = NC(=O)NCCC[C@H](N)C(=O)O; Ile(3ξ) = CCC(C)[C@H](N)C(=O)O; Thr(3ξ) = CC(O)[C@H](N)C(=O)O; PEG4 = NCCOCCOCCOCCOCCC(=O)O; 12Ado = NCCCCCCCCCCCC(=O)O; Carboxymethyl = O=C(O)C*; Orn = NCCC[C@H](N)C(=O)O; Aun = NCCCCCCCCCCC(=O)O; Dab = NCC[C@H](N)C(=O)O; Dap = NC[C@H](N)C(=O)O; AEEA = NCCOCCOCC(=O)O; Piv = CC(C)(C)C(=O)*

What follows are molecules tested against T1, PD-1/PD-L1 interaction (PE-labeled human PD-L1-Ig binding to Jurkat cell line over-expressing human PD-1) (Homo sapiens, UniProt Q15116) (assay: Jurkat-PD-1 Cell Binding High-Content Screening Assay (CBA)). Details: Jurkat cell line over-expressing human PD-1; PE-labeled PD-L1-Ig 20 nM final; read-out: Jurkat hPD1-PDL1 IC50.
T1 construct: expressed in transfected cells; host or cells: Jurkat
T1 sequence (Q15116 25-288): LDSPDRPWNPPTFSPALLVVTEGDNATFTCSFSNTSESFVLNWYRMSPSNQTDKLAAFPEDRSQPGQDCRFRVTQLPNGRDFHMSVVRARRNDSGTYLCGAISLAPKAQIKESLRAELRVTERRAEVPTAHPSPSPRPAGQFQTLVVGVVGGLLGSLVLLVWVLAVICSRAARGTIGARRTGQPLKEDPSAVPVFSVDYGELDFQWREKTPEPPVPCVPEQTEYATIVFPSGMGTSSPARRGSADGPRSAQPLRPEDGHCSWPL
Assay type: cell-based
How it was run: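 Jurkat cells over-expressing human PD-1 (8×10^3 per well, DMEM/10% FCS) preincubated with compound 2 h at 37° C, then PE-labeled human PD-L1-Ig (20 nM final) added for 1 h. Cells fixed with paraformaldehyde, Hoechst-stained, and bound fluorescence quantified by high-content imaging.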

Compound | IC50
Cc1cccc(C[C@@H]2NC(=O)[C@H](CC(=O)O)NC(=O)[C@H](Cc3ccc(OCC(=O)O)cc3)NC(=O)[C@H](CN)NC(=O)CSC[C@@H](C(=O)N[C@@H](CCN)C(=O)NCCOCCOCC(=O)NCCCCCCCCCCC(=O)O)NC(=O)[C@H](CCCN)NC(=O)[C@H](C(C)C)NC(=O)[C@H](CC3CCCCC3)NC(=O)[C@H](CCN)NC(=O)[C@@H](CC(C)C)NC(=O)[C@H](CCCN)NC(=O)[C@H](C(C)C)NC(=O)[C@H](Cc3ccc(-c4ccccc4)cc3)NC(=O)[C@H](Cc3ccc(O)cc3)NC2=O)c1 [Compound 2582] ({CH2CO}-[Dap]Y(Carboxymethyl)D[Phe(3-Me)]Y[Bip]V[Orn][dL][Dab][Cha]V[Orn]C[Dab][AEEA][Aun]-OH; thioether N-14) | 9.5 nM
CC(C)C[C@H]1NC(=O)[C@H](CCCN)NC(=O)[C@H](Cc2ccc(C(=O)O)cc2)NC(=O)[C@H](Cc2ccc(-c3ccccc3)cc2)NC(=O)[C@H](Cc2ccc(C(=O)O)cc2)NC(=O)[C@H](Cc2cccc(C(F)(F)F)c2)NC(=O)[C@H](CC(=O)O)NC(=O)[C@H](Cc2ccc(OCC(=O)O)cc2)NC(=O)[C@H](C)NC(=O)CSC[C@@H](C(=O)N[C@@H](CCN)C(=O)NCCOCCOCCOCCOCCC(=O)NCCCCCCCCCCCCC(=O)O)NC(=O)[C@H](Cc2c[nH]cn2)NC(=O)[C@H](C(C)(C)O)NC(=O)[C@H](CC2CCCCC2)NC(=O)[C@H](CCN)NC1=O [Compound 2953] ({CH2CO}-AY(Carboxymethyl)D[Phe(3-CF3)][Phe(4-COOH)][Bip][Phe(4-COOH)][Orn][dL][Dab][Cha][Val(3-OH)]HC[Dab][PEG4]-{NH(CH2)12COOH}; thioether N-14) | 49.3 nM
CC(C)C[C@H]1NC(=O)[C@H](CCCN)NC(=O)[C@H](C(C)C)NC(=O)[C@H](Cc2ccc(-c3ccccc3)cc2)NC(=O)[C@H](C(C)C)NC(=O)[C@H](Cc2c[nH]c3ccccc23)NC(=O)[C@H](CC(=O)O)NC(=O)[C@H](Cc2ccc(OCC(=O)O)cc2)NC(=O)[C@H](CN)NC(=O)CSC[C@@H](C(=O)N[C@@H](CCCCN)C(=O)NCCOCCOCC(=O)NCCCCCCCCCCC(=O)O)NC(=O)[C@H](CCCCN)NC(=O)[C@H](C(C)C)NC(=O)[C@H](CC2CCCCC2)NC(=O)[C@H](CCN)NC1=O [Compound 2525] ({CH2CO}-[Dap]Y(Carboxymethyl)DWV[Bip]V[Orn][dL][Dab][Cha]VKCK[AEEA][Aun]-OH; thioether N-14) | 16.5 nM
Cc1cccc(C[C@@H]2NC(=O)[C@H](CC(=O)O)NC(=O)[C@H](Cc3ccc(OCC(=O)O)cc3)NC(=O)[C@H](CN3CCOCC3)NC(=O)CSC[C@@H](C(=O)N[C@@H](CCN)C(=O)NCCOCCOCC(=O)NCCOCCOCC(=O)NCCCCCCCCCCCCC(=O)O)NC(=O)[C@H](CO)NC(=O)[C@H](C(C)(C)O)NC(=O)[C@H](CC3CCCCC3)NC(=O)[C@H](CCN)NC(=O)[C@@H](CC(C)C)NC(=O)[C@H](CCCN)NC(=O)[C@H](Cc3ccc(C(=O)O)cc3)NC(=O)[C@H](Cc3ccc(-c4ccccc4)cc3)NC(=O)[C@H](Cc3ccc(C(=O)O)cc3)NC2=O)c1 [Compound 2897] ({CH2CO}-[Ala(morpholin-4-yl)]Y(Carboxymethyl)D[Phe(3-Me)][Phe(4-COOH)][Bip][Phe(4-COOH)][Orn][dL][Dab][Cha][Val(3-OH)]SC[Dab][AEEA][AEEA]-{NH(CH2)12COOH}; thioether N-14) | 1.6 nM
CC(C)C[C@H]1NC(=O)[C@H](CCCN)NC(=O)[C@H](Cc2c[nH]cn2)NC(=O)[C@H](Cc2ccc(-c3ccccc3)cc2)NC(=O)[C@H](C(C)C)NC(=O)[C@H](Cc2c[nH]c3ccccc23)NC(=O)[C@H](CC(=O)O)NC(=O)[C@H](Cc2ccc(OCC(=O)O)cc2)NC(=O)[C@H](C(C)O)NC(=O)CSC[C@@H](C(=O)N[C@@H](CC(=O)NCCOCCOCC(=O)N[C@@H](CCCN)C(=O)NCCCCCCCCCCC(=O)O)C(=O)O)NC(=O)[C@H](CO)NC(=O)[C@H](C(C)C)NC(=O)[C@H](CC2CCCCC2)NC(=O)[C@H](CCN)NC1=O (stereo partly drawn) [Compound 3056] ({CH2CO}-[Thr(3ξ)]Y(Carboxymethyl)DWV[Bip]H[Orn][dL][Dab][Cha]VSC[βAsp][AEEA][Orn][Aun]-OH; thioether N-14) | 17.7 nM

Continued, values first:

IC50 | Compound
28.4 nM | Cc1cccc(C[C@@H]2NC(=O)[C@H](CC(=O)O)NC(=O)[C@H](Cc3ccc(OCC(=O)O)cc3)NC(=O)[C@H](Cc3ccc(F)cc3)NC(=O)CSC[C@@H](C(=O)N[C@@H](CCN)C(=O)NCCCCCCCCCCC(=O)O)NC(=O)[C@H](Cc3cnc[nH]3)NC(=O)[C@H](C(C)(C)O)NC(=O)[C@H](CC3CCCCC3)NC(=O)[C@H](CCN)NC(=O)[C@@H](CC(C)C)NC(=O)[C@H](CCCN)NC(=O)[C@H](Cc3ccc(OCC(=O)O)cc3)NC(=O)[C@H](Cc3ccc(-c4ccccc4)cc3)NC(=O)[C@H](Cc3ccc(OCC(=O)O)cc3)NC2=O)c1 [Compound 3798] ({CH2CO}-[Phe(4-F)]Y(Carboxymethyl)D[Phe(3-Me)]Y(Carboxymethyl)[Bip]Y(Carboxymethyl)[Orn][dL][Dab][Cha][Val(3-OH)]HC[Dab][Aun]-OH; thioether N-14)
12.1 nM | CCC(C)[C@@H]1NC(=O)[C@H](Cc2ccc(-c3ccccc3)cc2)NC(=O)[C@H](C(C)C)NC(=O)[C@H](Cc2c[nH]c3ccccc23)NC(=O)[C@H](CC(=O)O)NC(=O)[C@H](Cc2ccc(OCC(=O)O)cc2)NC(=O)[C@H](CCN)NC(=O)CSC[C@@H](C(=O)NCCOCCOCC(=O)N[C@@H](CCCCN)C(=O)NCCCCCCCCCCCC(=O)O)NC(=O)[C@H](C(C)O)NC(=O)[C@H](C(C)C)NC(=O)[C@H](CC2CCCCC2)NC(=O)[C@H](CCN)NC(=O)[C@@H](CC(C)C)NC(=O)[C@H](CCCN)NC1=O (stereo partly drawn) [Compound 3096] ({CH2CO}-[Dab]Y(Carboxymethyl)DWV[Bip][Ile(3ξ)][Orn][dL][Dab][Cha]V[Thr(3ξ)]C[AEEA]K[12Ado]-OH; thioether N-14)
10.5 nM | Cc1cccc(C[C@@H]2NC(=O)[C@H](CC(=O)O)NC(=O)[C@H](Cc3ccc(OCC(=O)O)cc3)NC(=O)[C@H](CC(N)=O)NC(=O)CSC[C@@H](C(=O)N[C@@H](CCN)C(=O)NCCCCCCCCCCC(=O)O)NC(=O)[C@H](CO)NC(=O)[C@H](C(C)O)NC(=O)[C@H](CC3CCCCC3)NC(=O)[C@H](CCN)NC(=O)[C@@H](CC(C)C)NC(=O)[C@H](CCCN)NC(=O)[C@H](Cc3ccc(OCC(=O)O)cc3)NC(=O)[C@H](Cc3ccc(-c4ccccc4)cc3)NC(=O)[C@H](Cc3ccc(OCC(=O)O)cc3)NC2=O)c1 (stereo partly drawn) [Compound 3639] ({CH2CO}-NY(Carboxymethyl)D[Phe(3-Me)]Y(Carboxymethyl)[Bip]Y(Carboxymethyl)[Orn][dL][Dab][Cha][Thr(3ξ)]SC[Dab][Aun]-OH; thioether N-14)
39.9 nM | Cc1cccc(C[C@@H]2NC(=O)[C@H](CC(=O)O)NC(=O)[C@H](Cc3ccc(OCC(=O)O)cc3)NC(=O)[C@H](CCCCNC(=O)C(C)(C)C)NC(=O)CSC[C@@H](C(=O)N[C@@H](CCN)C(=O)NCCCCCCCCCCC(=O)O)NC(=O)[C@H](C(C)O)NC(=O)[C@H](C(C)C)NC(=O)[C@H](CC3CCCCC3)NC(=O)[C@H](CCN)NC(=O)[C@@H](CC(C)C)NC(=O)[C@H](CCCN)NC(=O)[C@H](CCCNC(N)=O)NC(=O)[C@H](Cc3ccc(-c4ccccc4)cc3)NC(=O)[C@H](C(C)C)NC2=O)c1 (stereo partly drawn) [Compound 3539] ({CH2CO}-K(Piv)Y(Carboxymethyl)D[Phe(3-Me)]V[Bip][Cit][Orn][dL][Dab][Cha]V[Thr(3ξ)]C[Dab][Aun]-OH; thioether N-14)
33.3 nM | CC(C)C[C@H]1NC(=O)[C@H](CCCN)NC(=O)[C@H](Cc2ccc(O)cc2)NC(=O)[C@H](Cc2ccc(-c3ccccc3)cc2)NC(=O)[C@H](C(C)C)NC(=O)[C@H](Cc2c[nH]c3ccccc23)NC(=O)[C@H](CC(=O)O)NC(=O)[C@H](Cc2ccc(OCC(=O)O)cc2)NC(=O)[C@H](CCCNC(=N)N)NC(=O)CSC[C@@H](C(=O)N[C@@H](CCN)C(=O)NCCCCCCCCCCC(=O)O)NC(=O)[C@H](C(C)O)NC(=O)[C@H](C(C)C)NC(=O)[C@H](CC2CCCCC2)NC(=O)[C@H](CCN)NC1=O (stereo partly drawn) [Compound 3413] ({CH2CO}-RY(Carboxymethyl)DWV[Bip]Y[Orn][dL][Dab][Cha]V[Thr(3ξ)]C[Dab][Aun]-OH; thioether N-14)
5.8 nM | Cc1cccc(C[C@@H]2NC(=O)[C@H](CC(=O)O)NC(=O)[C@H](Cc3ccc(C(=O)O)cc3)NC(=O)[C@H](C(C)O)NC(=O)CSC[C@@H](C(=O)N[C@@H](CCN)C(=O)NCCOCCOCC(=O)NCCOCCOCC(=O)NCCCCCCCCCCC(=O)O)NC(=O)[C@H](CO)NC(=O)[C@H](C(C)O)NC(=O)[C@H](CC3CCCCC3)NC(=O)[C@H](CCN)NC(=O)[C@@H](CC(C)C)NC(=O)[C@H](CCCN)NC(=O)[C@H](Cc3ccc(C(=O)O)cc3)NC(=O)[C@H](Cc3ccc(-c4ccccc4)cc3)NC(=O)[C@H](Cc3ccc(C(=O)O)cc3)NC2=O)c1 (stereo partly drawn) [Compound 3775] ({CH2CO}-[Thr(3ξ)][Phe(4-COOH)]D[Phe(3-Me)][Phe(4-COOH)][Bip][Phe(4-COOH)][Orn][dL][Dab][Cha][Thr(3ξ)]SC[Dab][AEEA][AEEA][Aun]-OH; thioether N-14)
10.1 nM | Cc1cccc(C[C@@H]2NC(=O)[C@H](CC(=O)O)NC(=O)[C@H](Cc3ccc(OCC(=O)O)cc3)NC(=O)[C@H](CCN)NC(=O)CSC[C@@H](C(=O)N[C@@H](CCN)C(=O)NCCOCCOCC(=O)NCCCCCCCCCCC(=O)O)NC(=O)[C@H](CCCN)NC(=O)[C@H](C(C)C)NC(=O)[C@H](CC3CCCCC3)NC(=O)[C@H](CCN)NC(=O)[C@@H](CC(C)C)NC(=O)[C@H](CCCN)NC(=O)[C@H](Cc3ccc(O)cc3)NC(=O)[C@H](Cc3ccc(-c4ccccc4)cc3)NC(=O)[C@H](CCCCNC(=O)C(C)(C)C)NC2=O)c1 [Compound 3610] ({CH2CO}-[Dab]Y(Carboxymethyl)D[Phe(3-Me)]K(Piv)[Bip]Y[Orn][dL][Dab][Cha]V[Orn]C[Dab][AEEA][Aun]-OH; thioether N-14)
